From patent US9789086B1, “N-(5-arylamido-2-methylphenyl)-5-methylisooxazole-4-carboxamide deravative, pharmaceutical acceptable salt thereof, method for preparation therof and FMS kinase inhibitor comprising the same as anactive ingredient” (Industry-University Cooperation Foundation Hanyang …, priority 2014, dated 2017) come the findings set out here.

One assay addresses T1, FMS (Homo sapiens, UniProt P07333).
T1 construct: purchased Reaction Biology Corporation
Briefly: FMS inhibitory activity (Reaction Biology Kinase profiling, IC50 profiler express). It counts as biochemical. The method, then:
The inhibitory activity of FMS at a concentration of 10 μM of the compound prepared in Example 5 was measured using Kinase profiling services (IC 50 profiler express) offered by Reaction Biology Corporation.

A further assay has as its system A375P cell line. Put plainly: A375P cell line proliferation inhibitory activity (MTT assay). Type of assay: cell-based. The following applies: A375P cells, 48 hours treatment. The method, then: A375P cell lines were purchased from ATCC and cultured in a DMEM culture medium (containing 10% FBS and 1% penicillin/streptomycin) in the presence of 5% CO2 at 37° C. The cultured A375P cell lines were taken from culture substrate with 0.05% trypsin-0.02% EDTA and plated at a density of 5×10^3 cells per well in 96-well plates.
(§1) In order to measure cell viability, MTT [3-(4,5-dimethylthiazole-2-yl)-2,5-diphenyltetrazolium bromide] activity assay method (Thiazolyl Blue Tetrazolium Bromide, Sigma Aldrich) was used. Cell lines were cultured in 96-well plates for 24 hours and treated with the compounds of Examples previously prepared. For the compound treatment, 10 mM stocks were prepared, serially diluted in DMSO and added by 0.5 μL at 8 points (final concentration of 0.5%). The cell lines in plates treated with the compounds was cultured for 48 hours, then 15 μL of dye was added to each well and cultured for 4 hours. Then, 100 μL of DMSO solvent was added to each well, and the formed solid was dissolved to measure the absorbance. The absorbance was read at a wavelength of 570 nm using EnVision 2103, and the GI 50 value was calculated using GraphPad Prism 4.0 software, and the results are shown in Table 1 below.

A further assay has as its system U937 cell line. Put plainly: U937 cell line proliferation inhibitory activity (MTT assay). The following applies: Homo sapiens, U-937, U937 cells. Type of assay: cell-based. The method, then:
as §1
U937 cell lines were purchased from ATCC and cultured in a RPMI culture medium (containing 10% FBS, 1% penicillin/streptomycin and 25 mM HEPES) in the presence of 5% CO2 at 37° C. The cell line proliferation inhibitory activity for Examples previously prepared was measured using the same MTT activity assay method as the A375P cell line proliferation inhibitory activity assay in Experimental Example 1.

T1 sequence (P07333 20-972): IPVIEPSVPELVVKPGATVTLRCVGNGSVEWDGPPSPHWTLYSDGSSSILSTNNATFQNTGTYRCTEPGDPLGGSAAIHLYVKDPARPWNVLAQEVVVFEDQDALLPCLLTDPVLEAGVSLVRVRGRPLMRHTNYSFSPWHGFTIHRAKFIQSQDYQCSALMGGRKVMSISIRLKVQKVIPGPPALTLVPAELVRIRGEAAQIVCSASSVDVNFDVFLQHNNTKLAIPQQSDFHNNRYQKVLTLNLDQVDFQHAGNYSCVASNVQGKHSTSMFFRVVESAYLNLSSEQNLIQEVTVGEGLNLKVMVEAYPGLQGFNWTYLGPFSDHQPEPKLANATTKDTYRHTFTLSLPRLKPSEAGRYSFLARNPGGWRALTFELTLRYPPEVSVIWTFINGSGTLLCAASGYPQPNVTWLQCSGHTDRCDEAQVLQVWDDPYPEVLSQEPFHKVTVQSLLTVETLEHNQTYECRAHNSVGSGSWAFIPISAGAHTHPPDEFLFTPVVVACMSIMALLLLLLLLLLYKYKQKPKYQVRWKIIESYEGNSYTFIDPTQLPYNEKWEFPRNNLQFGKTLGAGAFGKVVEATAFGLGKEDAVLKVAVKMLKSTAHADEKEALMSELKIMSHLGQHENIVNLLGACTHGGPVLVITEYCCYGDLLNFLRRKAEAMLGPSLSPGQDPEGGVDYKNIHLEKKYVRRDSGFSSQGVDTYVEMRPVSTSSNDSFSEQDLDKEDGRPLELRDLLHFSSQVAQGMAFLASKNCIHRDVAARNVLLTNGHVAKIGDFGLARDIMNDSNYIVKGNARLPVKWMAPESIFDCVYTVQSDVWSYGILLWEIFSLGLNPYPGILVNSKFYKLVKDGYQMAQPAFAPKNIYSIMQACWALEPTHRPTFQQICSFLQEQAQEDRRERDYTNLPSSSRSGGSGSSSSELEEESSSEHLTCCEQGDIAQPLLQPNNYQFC

On to `Cc1ccc(NC(=O)c2ccc(Cl)c(C(F)(F)F)c2)cc1NC(=O)c1cnoc1C` [Example 5, N-(5-(4-chloro-3-(trifluoromethyl)benzamido)-2-methylphenyl)-5-methylisoxazole-4-carboxamide], for which, on FMS (compound concentration 10 μM, read-out: FMS activity inhibited), the inhibition at 10 µM stood at 98.7%. At FMS (sequentially decreasing concentration, read-out: concentration that inhibits FMS activity by 50% (IC50)), the IC50 is 0.00995 µM. Moreover, the GI50 in the assay on A375P cell line and in the assay on U937 cell line was 10 to 30 µM in each case.

Regarding `Cc1ccc(NC(=O)Cc2ccccc2F)cc1NC(=O)c1cnoc1C` [Example 8, N-(5-(2-(2-fluorophenyl)acetamido)-2-methylphenyl)-5-methylisoxazole-4-carboxamide], the 50% growth inhibitory concentration (GI50) in the assay with A375P cell line and with U937 cell line was 10 to 30 µM in each case.

Regarding `Cc1ccc(NC(=O)C(c2ccc(Cl)cc2)c2ccc(Cl)cc2)cc1NC(=O)c1cnoc1C` [Example 13, N-(5-(2,2-bis(4-chlorophenyl)acetamido)-2-methylphenyl)-5-methylisoxazole-4-carboxamide], the GI50 in the assay on A375P cell line and in the assay on U937 cell line was 10 to 30 µM in each case.

Take `CCCS(=O)(=O)Nc1ccc(C)c(NC(=O)c2cnoc2C)c1` [Example 42, 5-methyl-N-(2-methyl-5-(propylsulfonamido)phenyl)isoxazole-4-carboxamide]: the 50% growth inhibitory concentration (GI50) in the assay on A375P cell line and in the assay on U937 cell line was 10 to 30 µM in each case.

`Cc1cc(NC(=O)Nc2ccc(Cl)c(Cl)c2)ccc1NC(=O)c1cnoc1C` [Example 40, N-(4-(3-(3,4-dichlorophenyl)ureido)-2-methylphenyl)-5-methylisoxazole-4-carboxamide]: the concentration for 50% growth inhibition (GI50) was 1 to 10 µM with A375P cell line and 10 to 30 µM in the assay with U937 cell line.

Take `Cc1cc(NC(=O)Nc2ccc(Cl)cc2)ccc1NC(=O)c1cnoc1C` [Example 39, N-(4-(3-(4-chlorophenyl)ureido)-2-methylphenyl)-5-methylisoxazole-4-carboxamide]: the GI50 in the assay with A375P cell line and with U937 cell line was 10 to 30 µM in each case.

As to `Cc1cc(NC(=O)Nc2ccccc2F)ccc1NC(=O)c1cnoc1C` [Example 38, N-(4-(3-(2-fluorophenyl)ureido)-2-methylphenyl)-5-methylisoxazole-4-carboxamide], the concentration for 50% growth inhibition (GI50) with A375P cell line and in the assay on U937 cell line was 10 to 30 µM throughout.

For the compound `Cc1ccc(NC(=O)C2(C)CCc3c(C)c(O)c(C)c(C)c3O2)cc1NC(=O)c1cnoc1C` (stereo not drawn) [Example 14, N-(5-(6-hydroxy-2,5,7,8-tetramethylchroman-2-carboxamido)-2-methylphenyl)-5-methylisoxazole-4-carboxamide], the GI50 in the assay with A375P cell line and with U937 cell line was 10 to 30 µM throughout.

On to `Cc1ccc(NC(=O)C2Cc3ccccc3N2)cc1NC(=O)c1cnoc1C` (stereo not drawn) [Example 19, N-(5-(indoline-2-carboxamido)-2-methylphenyl)-5-methylisoxazole-4-carboxamide], for which the GI50 in the assay on A375P cell line and with U937 cell line was 10 to 30 µM throughout.

Turning to `Cc1ccc(NC(=O)c2ccncc2)cc1NC(=O)c1cnoc1C` [Example 20, N-(5-(isonicotinamido)-2-methylphenyl)-5-methylisoxazole-4-carboxamide], the GI50 with A375P cell line and with U937 cell line was 10 to 30 µM each time.

With `Cc1ccc(NC(=O)c2cc(-n3cncc3C)cc(C(F)(F)F)c2)cc1NC(=O)c1cnoc1C` [Example 10, 5-methyl-N-(2-methyl-5-(3-(5-methyl-1H-imidazol-1-yl)-5-(trifluoromethyl)benzamido)phenyl)isoxazole-4-carboxamide], the concentration for 50% growth inhibition (GI50) is 10 to 30 µM with A375P cell line and below 1 µM with U937 cell line.

Turning to `CC(=O)N1CCC(C(=O)Nc2ccc(C)c(NC(=O)c3cnoc3C)c2)CC1` [Example 15, N-(5-(1-acetylpiperidine-4-carboxamido)-2-methylphenyl)-5-methylisoxazole-4-carboxamide], the GI50 in the assay on A375P cell line and with U937 cell line was 10 to 30 µM in each case.

In the case of `Cc1ccc(NC(=O)Nc2cccc(Cl)c2)cc1NC(=O)c1cnoc1C` [Example 32, N-(5-(3-(3-chlorophenyl)ureido)-2-methylphenyl)-5-methylisoxazole-4-carboxamide], the GI50 in the assay with A375P cell line and in the assay with U937 cell line was 10 to 30 µM in each case.

For the compound `Cc1ccc(NC(=O)c2cnn(-c3ccccc3)c2C(F)(F)F)cc1NC(=O)c1cnoc1C` [Example 23, 5-methyl-N-(2-methyl-5-(1-phenyl-5-(trifluoromethyl)-1H-pyrazole-4-carboxamido)phenyl)isoxazole-4-carboxamide], the GI50 in the assay with A375P cell line is 10 to 30 µM; in the assay with U937 cell line it was below 1 µM.

As for `Cc1ccc(NC(=O)c2ccc(-c3ccccc3)cc2)cc1NC(=O)c1cnoc1C` [Example 26, N-(5-biphenyl-4-ylcarboxamido-2-methylphenyl)-5-methylisoxazole-4-carboxamide], the GI50 in the assay with A375P cell line and in the assay with U937 cell line was 10 to 30 µM in each case.

As to `Cc1ccc(NC(=O)Nc2ccc(Cl)c(C(F)(F)F)c2)cc1NC(=O)c1cnoc1C` [Example 30, N-(5-(3-(4-chloro-3-(trifluoromethyl)phenyl)ureido)-2-methylphenyl)-5-methylisoxazole-4-carboxamide], the GI50 in the assay on A375P cell line and with U937 cell line was 10 to 30 µM each time.

Take `Cc1ccc(NC(=O)c2ccccc2Sc2ccccc2C#N)cc1NC(=O)c1cnoc1C` [Example 21, N-(5-(2-(2-cyanophenylthio)benzamido)-2-methylphenyl)-5-methylisoxazole-4-carboxamide]: the GI50 in the assay with A375P cell line and with U937 cell line was 10 to 30 µM in each case.

On to `CCCS(=O)(=O)Nc1ccc(NC(=O)c2cnoc2C)c(C)c1` [Example 43, 5-methyl-N-(2-methyl-4-(propylsulfonamido)phenyl)isoxazole-4-carboxamide], for which the GI50 with A375P cell line and in the assay on U937 cell line was 10 to 30 µM each time.

Take `Cc1ccc(NC(=O)c2cc(N3CCOCC3)cc(C(F)(F)F)c2)cc1NC(=O)c1cnoc1C` [Example 44, 5-methyl-N-(2-methyl-5-(3-morpholino-5-(trifluoromethyl)benzamido)phenyl)isoxazole-4-carboxamide]: the 50% growth inhibitory concentration (GI50) in the assay on A375P cell line is 10 to 30 µM; in the assay with U937 cell line, below 1 µM.

As for `Cc1ccc(NC(=O)Cc2c[nH]c3ccccc23)cc1NC(=O)c1cnoc1C` [Example 16, N-(5-(2-(1H-indol-3-yl)acetamido)-2-methylphenyl)-5-methylisoxazole-4-carboxamide], the GI50 in the assay on A375P cell line and with U937 cell line was 10 to 30 µM each time.
